According to patent publication US4657897A, “N^6 -substituted adenosines for treating pain” (Warner-Lambert Company, priority 1985, dated 1987):

Columns and labels:
rat heart = assay: Coronary blood flow (PCS2A), isolated perfused rat heart; parameters: species or system rat (male); conditions: read-out: effect on heart rate (HR)
Description: Male rats (400-600 gms) are pretreated with Na heparin 2000 units and anesthetized with Na pentobarbital (50 mg/kg) administered intraperitoneally. Once anesthetized, the rat heart is rapidly excised, the ascending aorta fitted to the aortic perfusion cannula, and secured with a ligature. The coronary arteries are perfused initially at a rate of about 15 ml/min for two to three minutes, afterwhich they are perfused at constant pressure of 70 mm Hg and temperature of 37° C. The electrocardiogram (ECG) is recorded using two platinum electrodes positioned at the base and apex of the left ventricle. A second heart is excised, cannulated, and perfused by the same method outlined above. Both hearts are tested in parallel. The standard physiological salt solution (PSS) is a modified Krebs-Hanseleit bicarbonate buffer of the following composition in mM concentration: NaCl, 127; NaHCO3, 25; dextrose, 5.5; Na Pyruvate, 2.0; KCl, 4.7; MgSO4, 1.1; KH 2PO4, 1.2; CaCl2.2H2 O, 2.5; CaNa2 EDTA, 0.05.
A 30-minute stabilization period is observed before starting the test protocol.
The microprocessor control system is a servo mechanism which permits coronary perfusion pressure (CPP) and drug concentration to be maintained constant independent of changes in coronary flow. The level at which CPP and drug concentration are maintained can be changed by commands communicated through the microprocessor keyboard. Dose-response curves are carried out by perfusing concentrated drug solution (DC) at rates proportional to total coronary flow (CFT). Drug concentrations are increased by proportionate increases in the rate of DC infusion over CFT via the microprocessor keyboard. The proportional flow rates for DC:CFT is about 0.0002:1 at the low end and 0.02:1 at the high end of the dose-response curve. Dose-response curves encompassing at least two log doses are carried out by preparing two DCs with a concentration difference of 1:100. Following the first dose range of two log doses, the DC are switched, proportional pumping rate adjusted, and the dose-responsecurve continued for another two log doses. The standard dose-response curve is carried out in one-half log dose increments starting at a subthreshold dose and ending at a dose which produces near maximal response in activity. Standard reference compounds are tested over the range of 10^-9 to 10^-6 M.
Measurements are for heart rate (HR) and coronary flow (CF). Units are: HR, beats/minute (bpm) and CF, milliliters/minute (ml/min). HR is calculated from the ECG strip chart recording and CF is calculated by recording analog outputs from pumps 1 and 2. Outputs from pump #1=CFT and the output from pump #2=CF for heart B (CFB). CF for heart A (CFA) is calculated (CFT -CFB =CFA).

adenosine A2 receptor = target: T1, adenosine A2 receptor (Rattus norvegicus, UniProt P30543); assay: Adenosine Receptor Binding--A2 Receptor Affinity (RBA2), [3H]NECA binding, rat striatal membranes; parameters: species or system rat (mixed sex Sprague-Dawley; male Long-Evans); conditions: 4 nM [3H]NECA, 50 nM N6-cyclopentyladenosine, 25° C., 60 min
T1 construct: 5 mg original tissue weight of rat weight of rat striatal membranes; tissue Pel-Freez (Rogers, Ark.) for the brains; host or cells: rat striatum (Sprague-Dawley; Long-Evans gave essentially identical results), membranes
Description: Adenosine Receptor Binding--A2 Receptor Affinity (RBA2)
Brains from 200-500 g mixed sex Sprague-Dawley rats were purchased from Pel-Freez (Rogers, Ark.). […] Brains were thawed and then kept on ice while the striata were dissected out. Striata were disrupted in 10 vol of ice-cold 50 mM Tris.HCl (pH 7.7 at 25° C., pH 8.26 at 5° C.) (Tris) for 30 seconds in a Polytron PT-10 (Brinkmann) at setting 5. The suspension was centrifuged at 50,000 xg for ten minutes, the supernatant discarded, the pellet resuspended in 10 vol ice-cold Tris as above, recentrifuged, resuspended at 1 g/5 ml, and stored in plastic vials at -70° C. […] When needed, tissue was thawed at room temperature, disrupted in a Polytron, and kept on ice until used.
Test compounds were dissolved at 10 mM in dimethylsulfoxide on the same day as the experiment, and diluted in dimethylsulfoxide to 100× the final incubation concentration. […] [^3 H]NECA was diluted to 40 nM in Tris. […] After all additions, the rack of tubes was vortexed, and the tubes were then incubated for 60 min at 25° C. in a shaking water bath. The rack of tubes was vortexed an additional time halfway through the incubation.
Incubations were terminated by filtration through 2.4 cm GF/B filters under reduced pressure. Each tube was filtered as follows: the contents of the tube were poured onto the filter, 4 ml of ice-cold Tris were added to the tube and the contents poured onto the filter, and the filter was washed twice with 4 ml of ice-cold Tris. The filtration was complete in about twelve seconds. Filters were put in scintillation vials, 8 ml of Formula 947 scintillation fluid added, and the vials left overnight, shaken, and counted in a liquid scintillation counter at 40% efficiency.
The IC50 was calculated by weighted nonlinear least squares curve-fitting to the mass-action equation. [formula] where Y is cpm bound
T is cpm total binding without drug
S is cpm specific binding without drug
D is the concentration of drug
K is the IC50 of the drug
Weighting factors were calculated under the assumption that the standard deviation was proportional to the predicted value of Y. Nonspecific binding was treated as a very large (infinite) concentration of drug in the computer analysis.

T1 sequence (P30543 whole entry): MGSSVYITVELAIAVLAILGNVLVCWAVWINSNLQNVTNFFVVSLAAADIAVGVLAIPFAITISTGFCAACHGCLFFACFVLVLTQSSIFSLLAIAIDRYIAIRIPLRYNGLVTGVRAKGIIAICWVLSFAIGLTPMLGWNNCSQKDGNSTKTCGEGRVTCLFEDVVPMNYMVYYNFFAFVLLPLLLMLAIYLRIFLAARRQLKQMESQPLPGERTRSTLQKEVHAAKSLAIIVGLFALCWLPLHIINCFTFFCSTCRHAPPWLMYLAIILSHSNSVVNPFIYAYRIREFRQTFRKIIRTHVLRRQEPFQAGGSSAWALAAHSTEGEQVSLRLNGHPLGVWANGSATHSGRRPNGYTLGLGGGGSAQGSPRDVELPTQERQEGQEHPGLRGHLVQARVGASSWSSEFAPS

IC50 (adenosine A2 receptor): 390 nM
SMILES: OC[C@H]1O[C@@H](n2cnc3c(NCCC(c4ccccc4)c4ccccc4)ncnc32)[C@H](O)[C@@H]1O [Example 2, N^6-(3,3-Diphenylpropyl)adenosine]
activation at 1 µM (rat heart; 1 × 10^-6 Molar): -19% | activation at 0.1 µM (rat heart; 1 × 10^-7 Molar): -5% | activation at 0.01 µM (rat heart; 1 × 10^-8 Molar): -2% | activation at 3 µM (rat heart; 3 × 10^-6 Molar): -34%
